What was measured:
NOMO1 = test: cell viability relative to DMSO control; higher = less cytotoxic; details: 48 h
How it was run: (§1)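 Before seeding, each leukemia line was adapted for at least four passages in each medium. NOMO1 or SEM cells (500 cells/well) and P12-Ichikawa cells (1000 cells/well) went into 1536-well plates at 5 μl, then received library compounds in DMSO by pin dosing across 11 threefold concentrations, 47 μM to 0.79 nM. Readout was CellTiter-Glo One luminescence after 48 h at 37°C, and viability is given as a per-plate percentage of DMSO wells, with cell-free wells as background.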

P12-Ichikawa = test: as above; details: 48 h
How it was run: as §1

COc1cc(-c2nn(C3CCC(N4CCN(C(C)=O)CC4)CC3)c3ncnc(N)c23)ccc1NC(=O)c1cc2ccccc2n1C (stereo not drawn)
cell viability [%]
Details	HPLM + 10% dialyzed FBS	RPMI 5 mM glucose + 10% FBS	RPMI 5 mM glucose + 10% dialyzed FBS
NOMO1, 0.000781 µM	–	104	106
NOMO1, 0.00234 µM	–	117	110
NOMO1, 0.00702 µM	–	101	120
NOMO1, 0.0211 µM	–	109	119
NOMO1, 0.0632 µM	–	107	129
NOMO1, 0.19 µM	–	111	115
NOMO1, 0.569 µM	–	106	113
NOMO1, 1.71 µM	–	113	112
NOMO1, 5.12 µM	–	112	106
NOMO1, 15.4 µM	–	89.2	109
NOMO1, 46.1 µM	–	26.8	31.3
P12-Ichikawa, 0.000781 µM	117	110	109
P12-Ichikawa, 0.00234 µM	114	114	110
P12-Ichikawa, 0.00702 µM	114	118	119
P12-Ichikawa, 0.0211 µM	128	115	117
P12-Ichikawa, 0.0632 µM	115	113	–
P12-Ichikawa, 0.19 µM	116	117	–
P12-Ichikawa, 0.569 µM	107	109	–
P12-Ichikawa, 1.71 µM	111	102	–
P12-Ichikawa, 5.12 µM	103	113	–
P12-Ichikawa, 15.4 µM	102	115	–
P12-Ichikawa, 46.1 µM	83.9	100	–

Reference: the supplement of paper PMC11451515
